Experimental data reported in patent US20190029257A1, “APPLICATION FOR HERBICIDE-TOLERANT PROTEIN” (BEIJING DABEINONG TECHNOLOGY GROUP CO., LTD., priority 2016, published 2019).

What was measured:
Type in all cases: in vivo
[1] = tested on: wild-type maize plants (CK2); assay: Halosulfuron-methyl tolerance of maize plants (damage degree); parameters: Average damage % 3 DAT / Average damage % 7 DAT / Average damage % 14 DAT / Average damage % 21 DAT: dose or concentration left out as unconfirmed
Experimental: The herbicide tolerance effects of Zm cytoplasmic ALT-1-02 maize plants, Zm chloroplastic ALT-1-02 maize plants, Zm cytoplasmic ALT-2-02 maize plants, Zm chloroplastic ALT-2-02 maize plants, Zm cytoplasmic ALT-3-02 maize plants, Zm chloroplastic ALT-3-02 maize plants and wild-type maize plants on halosulfuron-methyl were detected (at V3-V4 stage), respectively.
[…] The damage degree caused by the herbicide was measured for each plant according to the plant growth status 3 days after spraying (3 DAT), 7 days after spraying (7 DAT), 14 days after spraying (14 DAT) and 21 days after spraying (21 DAT), respectively: considering a growth status equivalent to that of the untreated plants as having a damage degree of 0%; considering conditions of leaves being partially chlorotic and yellow but substantially not affecting the plant normal growth as having a damage degree of 50%; and considering the whole plant being purple and dying as having a damage degree of 100%. There were 2 strains in Zm cytoplasmic ALT-1-02 maize plants in total (S13 and S14), 2 strains in Zm chloroplastic ALT-1-02 maize plants in total (S15 and S16), 2 strains in Zm cytoplasmic ALT-2-02 maize plants in total (S17 and S18), 2 strains in Zm chloroplastic ALT-2-02 maize plants in total (S19 and S20), 2 strains in Zm cytoplasmic ALT-3-02 maize plants in total (S21 and S22), 2 strains in Zm chloroplastic ALT-3-02 maize plants in total (S23 and S24), and 1 strain in wild- type maize plants (CK2) in total; and 10-15 plants were selected from each strain and tested.

[2] = tested on: At chloroplastic ALT-1-01 T1 plants; assay: Herbicide tolerance of Arabidopsis thaliana T1 plants (spray, resistance classes counted); conditions: 18 g ai/ha (1x Hal.); number of plants 14 days after spraying; Total 31
Excerpt: (§1) T1 transformants were initially selected from the background of untransformed seeds using a glufosinate selection scheme. About 40000 T1 seeds were screened, and 380 T1 positive transformants (PAT gene) were identified with a transformation efficiency of about 0.95%. The plants that were transformed with the recombinant expression vector DBN100632 were Arabidopsis thaliana plants having an ALT-1-01 nucleotide sequence located in the cytoplasm introduced (At cytoplasmic ALT-1-01), and the plants that were transformed with the recombinant expression vector DBN100631 were Arabidopsis thaliana plants having an ALT-1-01 nucleotide sequence located in the chloroplast introduced (At chloroplastic ALT-1-01); the plants that were transformed with the recombinant expression vector DBN100634 were Arabidopsis thaliana plants having an ALT-2-01 nucleotide sequence located in the cytoplasm introduced (At cytoplasmic ALT-2-01), and the plants that were transformed with the recombinant expression vector DBN100633 were Arabidopsis thaliana plants having an ALT-2-01 nucleotide sequence located in the chloroplast introduced (At chloroplastic ALT-2-01); and the plants that were transformed with the recombinant expression vector DBN100636 were Arabidopsis thaliana plants having an ALT-3-01 nucleotide sequence located in the cytoplasm introduced (At cytoplasmic ALT-3-01), and the plants that were transformed with the recombinant expression vector DBN100635 were Arabidopsis thaliana plants having an ALT-3-01 nucleotide sequence located in the chloroplast introduced (At chloroplastic ALT-3-01). The herbicide tolerance effects of At cytoplasmic ALT-1-01 T1 plants, At chloroplastic ALT-1-01 T1 plants, At cytoplasmic ALT-2-01 T1 plants, At chloroplastic ALT-2-01 T1 plants, At cytoplasmic ALT-3-01 T1 plants, At chloroplastic ALT-3-01 T1 plants and wild-type Arabidopsis thaliana plants on halosulfuron-methyl were detected (14 days after sowing), respectively.
(§2) […] Plants were counted for the resistance situations 14 days after spraying: those having a consistent growth status with the blank solvent (water) group after 14 days were classified as highly resistant plants, those having a bolting height less than ½ of that of the blank solvent (water) group after 14 days were classified as moderately resistant plants, those still not capable of bolting after 14 days were classified as poorly resistant plants, and those dead after 14 days were classified as non-resistant plants. Since each Arabidopsis thaliana T1 plant was an independent transformation event, a significant difference in individual T1 responses could be expected at a given dose.
as §2, with “situation” for “situations”

[3] = tested on: At cytoplasmic ALT-3-01 T1 plants; assay: as above; conditions: 18 g ai/ha (1x Hal.); number of plants 14 days after spraying; Total 28
Excerpt: as §1, §2
as §2, with “situation” for “situations”

[4] = tested on: At chloroplastic ALT-3-01 T1 plants; assay: as above; conditions: 18 g ai/ha (1x Hal.); number of plants 14 days after spraying; Total 30
Excerpt: as §1, §2
as §2, with “situation” for “situations”

[5] = tested on: At cytoplasmic ALT-2-01 T1 plants; assay: as above; conditions: 18 g ai/ha (1x Hal.); number of plants 14 days after spraying; Total 28
Excerpt: as §1, §2
as §2, with “situation” for “situations”

[6] = tested on: At cytoplasmic ALT-1-01 T1 plants; assay: as above; conditions: 18 g ai/ha (1x Hal.); number of plants 14 days after spraying; Total 31
Excerpt: as §1, §2
as §2, with “situation” for “situations”

[7] = tested on: At chloroplastic ALT-2-01 T1 plants; assay: as above; conditions: 18 g ai/ha (1x Hal.); number of plants 14 days after spraying; Total 31
Excerpt: as §1, §2
as §2, with “situation” for “situations”

For `COC(=O)c1c(Cl)nn(C)c1S(=O)(=O)NC(=O)Nc1nc(OC)cc(OC)n1` [halosulfuron-methyl, 3-chlorine-5-(4,6-dimethoxypyrimidine-2-aminocarbonylaminosulphonyl)-1-methylpyrazole-4-carboxylic acid methyl ester], the “damage to the plants” value ([1]; 36 g ai/ha, summary of Table 4) was “some slight damage”, the “Average damage % 3 DAT” value ([1]; strain CK2, 3 days after spraying) was 10% and the “Average damage % 7 DAT” value ([1]; strain CK2, 7 days after spraying) was 20%. For the same compound, the “Average damage % 14 DAT” value ([1]; strain CK2, 14 days after spraying) was 19%, the “Average damage % 21 DAT” value ([1]; strain CK2, 21 days after spraying) was 18% and the Highly resistant [2] was 1. For the same compound, the Moderately resistant [2] was 2, the Non-resistant [2] was 7 and the Poorly resistant [2] was 5. The Highly resistant [3] was 1, the Moderately resistant [3] was 6 and the Non-resistant [3] was 5. For the same compound, the Poorly resistant [3] was 5, the Highly resistant [4] was 1 and the Moderately resistant [4] was 6. The Non-resistant [4] was 5, the Poorly resistant [4] was 5 and the Highly resistant [5] was 1. The Moderately resistant [5] was 6, the Non-resistant [5] was 5 and the Poorly resistant [5] was 4. It also gave a Moderately resistant [6] of 6, a Non-resistant [6] of 15 and a Poorly resistant [6] of 5. The Highly resistant [7] was 1, the Moderately resistant [7] was 4 and the Non-resistant [7] was 5. For the same compound, the Poorly resistant [7] was 7.
